Structures can show the parent of a compound that is named as a salt.
biological target: T1, human NK3 receptor (Homo sapiens, UniProt P29371); assay: [3H]SR142801 competition binding assay; details: not given
T1 construct: expressed in transfected cells; host or cells: HEK293 cells, transiently transfected; membranes
T1 sequence (P29371 1-465): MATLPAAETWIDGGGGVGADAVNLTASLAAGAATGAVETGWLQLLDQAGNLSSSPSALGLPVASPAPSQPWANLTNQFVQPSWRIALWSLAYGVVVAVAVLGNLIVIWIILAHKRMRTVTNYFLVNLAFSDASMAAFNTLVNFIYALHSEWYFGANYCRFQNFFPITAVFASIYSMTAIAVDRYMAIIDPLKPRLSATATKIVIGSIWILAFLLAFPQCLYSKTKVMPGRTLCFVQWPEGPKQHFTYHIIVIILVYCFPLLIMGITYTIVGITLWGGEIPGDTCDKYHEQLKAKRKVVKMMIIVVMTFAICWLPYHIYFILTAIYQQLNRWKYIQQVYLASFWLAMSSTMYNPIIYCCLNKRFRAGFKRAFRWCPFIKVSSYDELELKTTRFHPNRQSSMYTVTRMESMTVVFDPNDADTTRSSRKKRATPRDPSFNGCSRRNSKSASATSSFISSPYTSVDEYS
Description: [^3H]SR142801 Competition Binding Assay
hNK3 receptor binding experiment were performed using [^3H]SR142801 (Catalog No. TRK1035, specific activity: 74.0 Ci/mmol, Amersham, GE Healthcare UK limited, Buckinghamshire, UK) and membrane isolated from HEK293 cells transiently expressing recombinant human NK3 receptor. After thawing, the membrane homogenates were centrifuged at 48,000×g for 10 min at 4° C., the pellets were resuspended in the 50 mM Tris-HCl, 4 mM MnCl2, 1 μM phosphoramidon, 0.1% BSA binding buffer at pH 7.4 to a final assay concentration of 5 μg protein/well. For inhibition experiments, membranes were incubated with [^3H]SR142801 at a concentration equal to KD value of radioligand and 10 concentrations of the inhibitory compound (0.0003-10 μM) (in a total reaction volume of 500 μl) for 75 min at room temperature (RT). At the end of the incubation, membranes were filtered onto unitfilter (96-well white microplate with bonded GF/C filter preincubated 1 h in 0.3% PEI+0.3% BSA, Packard BioScience, Meriden, Conn.) with a Filtermate 196 harvester (Packard BioScience) and washed 4 times with ice-cold 50 mM Tris-HCl, pH 7.4 buffer. Nonspecific binding was measured in the presence of 10 μM SB222200 for both radioligands. The radioactivity on the filter was counted (5 min) on a Packard Top-count microplate scintillation counter with quenching correction after addition of 45 μl of microscint 40 (Canberra Packard S.A., Zürich, Switzerland) and shaking for 1 h. Inhibition curves were fitted according to the Hill equation: y=100/(1+(x/IC50)^nH), where nH=slope factor using Excel-fit 4 software (Microsoft). IC50 values were derived from the inhibition curve and the affinity constant (Ki) values were calculated using the Cheng-Prussoff equation Ki=IC50/(1+[L]/KD) where [L] is the concentration of radioligand and KD is its dissociation constant at the receptor, derived from the saturation isotherm. All experiments were performed in duplicate and the mean±standard error (SEM) of the individual Ki values was calculated.

Question: `CCCCN(C)C(=O)C(CCN1CCC2(CC1)OC(=O)Nc1ccc(F)cc12)c1ccc(Cl)c(Cl)c1` (stereo not shown) [Example 14, N-butyl-2-(3,4-dichlorophenyl)-4-(6-fluoro-2-oxo-1,2-dihydro-1′H-spiro[3,1-benzoxazine-4,4′-piperidin]-1′-yl)-N-methylbutanamide] was tested. Which Ki did it give?
Answer: 90.8 nM

Question: With `CN1C(=O)OC2(CCN(CCC(C(=O)N3CCc4ccc(F)cc4C3)c3ccc(Cl)c(Cl)c3)CC2)c2cc(F)ccc21` (stereo not shown) [Example 38, 1′-[3-(3,4-dichlorophenyl)-4-(7-fluoro-3,4-dihydroisoquinolin-2(1H)-yl)-4-oxobutyl]-6-fluoro-1-methylspiro[3,1-benzoxazine-4,4′-piperidin]-2(1H)-one] as the compound, how does the Ki read?
Answer: 48.7 nM

Question: How did the Ki turn out when `CN(Cc1ccc(Cl)cc1)C(=O)C(CCN1CCC2(CC1)OC(=O)N(C)c1ccc(F)cc12)c1ccc(Cl)c(Cl)c1` (stereo not shown) [Example 42, N-(4-chlorobenzyl)-2-(3,4-dichlorophenyl)-4-(6-fluoro-1-methyl-2-oxo-1,2-dihydro-1′H-spiro[3,1-benzoxazine-4,4′-piperidin]-1′-yl)-N-methylbutanamide] was run?
Answer: 0.8 nM

same assay, conditions: [3H]SR142801 displacement, membranes of HEK293 cells transiently expressing recombinant human NK3 receptor; read-out: hNK3 Ki

Question: With `Cc1ccc(CNC(=O)C(CCN2CCC3(CC2)OC(=O)Nc2ccc(F)cc23)c2ccc(Cl)c(Cl)c2)o1` (stereo not shown) [Example 9, 2-(3,4-dichlorophenyl)-4-(6-fluoro-2-oxo-1,2-dihydro-1′H-spiro[3,1-benzoxazine-4,4′-piperidin]-1′-yl)-N-[(5-methyl-2-furyl)methyl]butanamide] as the compound, how does the Ki read?
Answer: 91.4 nM

same assay, conditions: hNK3 Ki, [3H]SR142801 displacement, membranes of HEK293 cells transiently expressing recombinant human NK3 receptor

Question: Which Ki does the source give for `CN(Cc1ccccc1)C(=O)C(CCN1CCC2(CC1)OC(=O)Nc1ccc(F)cc12)c1ccc(Cl)c(Cl)c1` (stereo not shown) [Example 1, N-benzyl-2-(3,4-dichlorophenyl)-4-(6-fluoro-2-oxo-1,2-dihydro-1′H-spiro[3,1-benzoxazine-4,4′-piperidin]-1′-yl)-N-methylbutanamide hydrochloride] here?
Answer: 11.2 nM

Question: For `CCN(Cc1ccccc1)C(=O)C(CCN1CCC2(CC1)OC(=O)Nc1ccc(F)cc12)c1ccc(Cl)c(Cl)c1` (stereo not shown) [Example 6, N-benzyl-2-(3,4-dichlorophenyl)-N-ethyl-4-(6-fluoro-2-oxo-1,2-dihydro-1′H-spiro[3,1-benzoxazine-4,4′-piperidin]-1′-yl)butanamide], which Ki is on record?
Answer: 62.8 nM

Question: With `O=C1Nc2ccc(F)cc2C2(CCN(CCC(C(=O)NCc3ccc(Cl)cc3)c3ccc(Cl)c(Cl)c3)CC2)O1` (stereo not shown) [Example 8, N-(4-chlorobenzyl)-2-(3,4-dichlorophenyl)-4-(6-fluoro-2-oxo-1,2-dihydro-1′H-spiro[3,1-benzoxazine-4,4′-piperidin]-1′-yl)butanamide] as the compound, how does the Ki read?
Answer: 17 nM

Question: With `CCN(Cc1ccccc1F)C(=O)C(CCN1CCC2(CC1)OC(=O)Nc1ccc(F)cc12)c1ccc(Cl)c(Cl)c1` (stereo not shown) [Example 12, 2-(3,4-dichlorophenyl)-N-ethyl-N-(2-fluorobenzyl)-4-(6-fluoro-2-oxo-1,2-dihydro-1′H-spiro[3,1-benzoxazine-4,4′-piperidin]-1′-yl)butanamide] as the compound, how does the Ki read?
Answer: 31.2 nM

Question: `CN(Cc1ccc(Cl)cc1)C(=O)C(CCN1CCC2(CC1)OC(=O)Nc1ccc(F)cc12)c1ccc(Cl)c(Cl)c1` (stereo not shown) [Example 15, N-(4-chlorobenzyl)-2-(3,4-dichlorophenyl)-4-(6-fluoro-2-oxo-1,2-dihydro-1′H-spiro[3,1-benzoxazine-4,4′-piperidin]-1′-yl)-N-methylbutanamide] was tested. Which Ki did it give?
Answer: 3.7 nM

Question: With `CN(Cc1ccccc1Cl)C(=O)C(CCN1CCC2(CC1)OC(=O)Nc1ccc(F)cc12)c1ccc(Cl)c(Cl)c1` (stereo not shown) [Example 17, N-(2-chlorobenzyl)-2-(3,4-dichlorophenyl)-4-(6-fluoro-2-oxo-1,2-dihydro-1′H-spiro[3,1-benzoxazine-4,4′-piperidin]-1′-yl)-N-methylbutanamide] as the compound, how does the Ki read?
Answer: 6.7 nM

Question: How did the Ki turn out when `CCN(Cc1ccc(C)cc1)C(=O)C(CCN1CCC2(CC1)OC(=O)Nc1ccc(F)cc12)c1ccc(Cl)c(Cl)c1` (stereo not shown) [Example 18, 2-(3,4-dichlorophenyl)-N-ethyl-4-(6-fluoro-2-oxo-1,2-dihydro-1′H-spiro[3,1-benzoxazine-4,4′-piperidin]-1′-yl)-N-(4-methylbenzyl)butnamide] was run?
Answer: 15.7 nM

Question: For `CN(Cc1cccc(Cl)c1)C(=O)C(CCN1CCC2(CC1)OC(=O)Nc1ccc(F)cc12)c1ccc(Cl)c(Cl)c1` (stereo not shown) [Example 19, N-(3-chlorobenzyl)-2-(3,4-dichlorophenyl)-4-(6-fluoro-2-oxo-1,2-dihydro-1′H-spiro[3,1-benzoxazine-4,4′-piperidin]-1′-yl)-N-methylbutanamide], which Ki is on record?
Answer: 5.2 nM

Question: For `CN(Cc1cccc(Cl)c1)C(=O)C(CCN1CCC2(CC1)OC(=O)Nc1ccc(F)cc12)c1ccc(F)cc1` (stereo not shown) [Example 25, N-(3-chlorobenzyl)-4-(6-fluoro-2-oxo-1,2-dihydro-1′H-spiro[3,1-benzoxazine-4,4′-piperidin]-1′-yl)-2-(4-fluorophenyl)-N-methylbutanamide], which Ki is on record?
Answer: 59.4 nM

Question: How did the Ki turn out when `CN(Cc1ccc(Cl)cc1)C(=O)C(CCN1CCC2(CC1)OC(=O)Nc1ccc(F)cc12)c1ccc(F)cc1` (stereo not shown) [Example 26, N-(4-chlorobenzyl)-4-(6-fluoro-2-oxo-1,2-dihydro-1′H-spiro[3,1-benzoxazine-4,4′-piperidin]-1′-yl)-2-(4-fluorophenyl)-N-methylbutanamide] was run?
Answer: 38.3 nM

Question: Which Ki does the source give for `CN(Cc1ccccc1Cl)C(=O)C(CCN1CCC2(CC1)OC(=O)Nc1ccc(F)cc12)c1ccc(F)cc1` (stereo not shown) [Example 27, N-(2-chlorobenzyl)-4-(6-fluoro-2-oxo-1,2-dihydro-1′H-spiro[3,1-benzoxazine-4,4′-piperidin]-1′-yl)-2-(4-fluorophenyl)-N-methylbutanamide] here?
Answer: 38.5 nM

Question: Which Ki does the source give for `CCN(Cc1ccccc1)C(=O)C(CCN1CCC2(CC1)OC(=O)N(C)c1ccc(F)cc12)c1ccc(Cl)c(Cl)c1` (stereo not shown) [Example 29, N-benzyl-2-(3,4-dichlorophenyl)-N-ethyl-4-(6-fluoro-1-methyl-2-oxo-1,2-dihydro-1′H-spiro[3,1-benzoxazine-4,4′-piperidin]-1′-yl)-butanamide] here?
Answer: 6.7 nM

Question: Which Ki does the source give for `Cc1ccc(CNC(=O)C(CCN2CCC3(CC2)OC(=O)N(C)c2ccc(F)cc23)c2ccc(Cl)c(Cl)c2)cc1` (stereo not shown) [Example 31, 2-(3,4-dichlorophenyl)-4-(6-fluoro-1-methyl-2-oxo-1,2-dihydro-1′H-spiro[3,1-benzoxazine-4,4′-piperidin]-1′-yl)-N-(4-methylbenzyl)butanamide] here?
Answer: 5.8 nM

Question: `CN1C(=O)OC2(CCN(CCC(C(=O)NCc3ccccc3)c3ccc(Cl)c(Cl)c3)CC2)c2cc(F)ccc21` (stereo not shown) [Example 32, N-benzyl-2-(3,4-dichlorophenyl)-4-(6-fluoro-1-methyl-2-oxo-1,2-dihydro-1′H-spiro[3,1-benzoxazine-4,4′-piperidin]-1′-yl)-butanamide] was tested. Which Ki did it give?
Answer: 3.9 nM

Question: For `CN1C(=O)OC2(CCN(CCC(C(=O)NCc3ccc(S(C)(=O)=O)cc3)c3ccc(Cl)c(Cl)c3)CC2)c2cc(F)ccc21` (stereo not shown) [Example 33, 2-(3,4-dichlorophenyl)-4-(6-fluoro-1-methyl-2-oxo-1,2-dihydro-1′H-spiro[3,1-benzoxazine-4,4′-piperidin]-1′-yl)-N-[4-(methylsulfonyl)benzyl]butanamide], which Ki is on record?
Answer: 54.7 nM

Question: For `CN1C(=O)OC2(CCN(CCC(C(=O)NCc3ccc(Cl)cc3)c3ccc(Cl)c(Cl)c3)CC2)c2cc(F)ccc21` (stereo not shown) [Example 34, N-(4-chlorobenzyl)-2-(3,4-dichlorophenyl)-4-(6-fluoro-1-methyl-2-oxo-1,2-dihydro-1′H-spiro[3,1-benzoxazine-4,4′piperidin]-1′-yl)-butanamide], which Ki is on record?
Answer: 3.3 nM

Question: How did the Ki turn out when `CCN(Cc1ccc(C)cc1)C(=O)C(CCN1CCC2(CC1)OC(=O)N(C)c1ccc(F)cc12)c1ccc(Cl)c(Cl)c1` (stereo not shown) [Example 39, 2-(3,4-dichlorphenyl)-N-ethyl-4-(6-fluoro-1-methyl-2-oxo-1,2-dihydro-1′H-spiro[3,1-benzoxazine-4,4′-piperidin]-1′-yl)-N-(4-methylbenzyl)butanamide] was run?
Answer: 4.2 nM

Question: How did the Ki turn out when `CN(Cc1cccc(Cl)c1)C(=O)C(CCN1CCC2(CC1)OC(=O)N(C)c1ccc(F)cc12)c1ccc(Cl)c(Cl)c1` (stereo not shown) [Example 40, N-(3-chlorobenzyl)-2-(3,4-dichlorophenyl)-4-(6-fluoro-1-methyl-2-oxo-1,2-dihydro-1′H-spiro[3,1-benzoxazine-4,4′-piperidin]-1′-yl)-N-methylbutanamide] was run?
Answer: 1.1 nM

Source: patent US7470684B2, “Spiropiperidine derivatives as NK3 antagonists” (Hoffmann-La Roche Inc., priority 2007, dated 2008)
